Reference: ChEMBL document CHEMBL1201862, “PubChem BioAssay data set” (2004)
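Assay format: 96-well plates, 48-hour exposure. The concentration for 50% growth inhibition is given as GI50.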 Calls of active or inactive are those of the source. Cut-off read from the data, not from the text of the source: active = GI50 up to about 1.1 µM and inactive = higher.

How the values were obtained:
Assay in all cases: growth of human tumour cells (NCI), 48 h
NCI-H23 = tested on: NCI-H23
UACC-62 = tested on: UACC-62
HCT-15 = tested on: HCT-15
SR = tested on: SR
IGROV-1 = tested on: IGROV-1
LOX IMVI = tested on: LOX IMVI
MDA-N = tested on: MDA-N
SK-OV-3 = tested on: SK-OV-3
UO-31 = tested on: UO-31
SK-MEL-28 = tested on: SK-MEL-28
A498 = tested on: A498
SF-295 = tested on: SF-295
TK-10 = tested on: TK-10
SW-620 = tested on: SW-620
K562 = tested on: K562
RXF 393 = tested on: RXF 393
OVCAR-8 = tested on: OVCAR-8
COLO 205 = tested on: COLO 205
RPMI-8226 = tested on: RPMI-8226
BT-549 = tested on: BT-549

SMILES	GI50 (NCI-H23)	GI50 (UACC-62)	GI50 (HCT-15)	GI50 (SR)	GI50 (IGROV-1)	GI50 (LOX IMVI)	GI50 (MDA-N)	GI50 (SK-OV-3)	GI50 (UO-31)	GI50 (SK-MEL-28)	GI50 (A498)	GI50 (SF-295)	GI50 (TK-10)	GI50 (SW-620)	GI50 (K562)	GI50 (RXF 393)	GI50 (OVCAR-8)	GI50 (COLO 205)	GI50 (RPMI-8226)	GI50 (BT-549)
CCOC(CNCCC(=O)OC)OCC	> 10 µM (inactive)	> 10 µM (inactive)	> 10 µM	> 10 µM (inactive)	> 10 µM (inactive)	> 10 µM (inactive)	> 10 µM (inactive)	> 10 µM (inactive)	> 10 µM (inactive)	> 10 µM (inactive)	> 10 µM (inactive)	> 10 µM (inactive)	> 10 µM (inactive)	> 10 µM (inactive)	> 10 µM (inactive)	> 10 µM (inactive)	> 10 µM (inactive)	> 10 µM (inactive)	> 10 µM (inactive)	–
O=c1c2ccccc2nnn1-c1n[nH]c2ccccc12	> 100 µM (inactive)	> 100 µM (inactive)	> 100 µM	–	> 100 µM (inactive)	–	–	–	> 100 µM (inactive)	> 100 µM (inactive)	> 100 µM (inactive)	> 100 µM (inactive)	> 100 µM (inactive)	> 100 µM (inactive)	–	> 100 µM (inactive)	–	> 100 µM (inactive)	> 100 µM (inactive)	> 100 µM (inactive)
CC(C)(C)C=C=C(C(C)(C)C)P(=O)(O)O	> 100 µM (inactive)	> 100 µM (inactive)	> 100 µM	> 100 µM (inactive)	> 100 µM (inactive)	> 100 µM (inactive)	> 100 µM (inactive)	> 100 µM (inactive)	–	> 100 µM (inactive)	> 100 µM (inactive)	> 100 µM (inactive)	> 100 µM (inactive)	> 100 µM (inactive)	> 100 µM (inactive)	> 100 µM (inactive)	> 100 µM (inactive)	> 100 µM (inactive)	< 0.01 µM (active)	–
O=c1c2cc(I)ccc2nc(-c2cccs2)n1/N=C/c1ccccc1	> 100 µM (inactive)	> 100 µM (inactive)	> 100 µM	10.1 µM (inactive)	> 100 µM (inactive)	> 100 µM (inactive)	–	> 100 µM (inactive)	> 100 µM (inactive)	> 100 µM (inactive)	–	> 100 µM (inactive)	> 100 µM (inactive)	> 100 µM (inactive)	7.18 µM (inactive)	> 100 µM (inactive)	> 100 µM (inactive)	> 100 µM (inactive)	> 100 µM (inactive)	> 100 µM (inactive)
COc1ccc2c3c([nH]c2c1)CCN(CCCC(=O)c1ccc(F)cc1)C3	19.4 µM (inactive)	13.8 µM (inactive)	20.1 µM	18 µM (inactive)	18.4 µM (inactive)	12.7 µM (inactive)	20 µM (inactive)	19.4 µM (inactive)	14 µM (inactive)	15.3 µM (inactive)	16 µM (inactive)	15.7 µM (inactive)	15.5 µM (inactive)	17 µM (inactive)	16.6 µM (inactive)	14.2 µM (inactive)	15.6 µM (inactive)	12.8 µM (inactive)	16.7 µM (inactive)	–
C/C(=C\CNc1ncnc2[nH]c(Cl)nc12)CO	> 100 µM (inactive)	–	–	> 100 µM (inactive)	> 100 µM (inactive)	> 100 µM (inactive)	> 100 µM (inactive)	> 100 µM (inactive)	> 100 µM (inactive)	> 100 µM (inactive)	> 100 µM (inactive)	> 100 µM (inactive)	> 100 µM (inactive)	> 100 µM (inactive)	> 100 µM (inactive)	> 100 µM (inactive)	> 100 µM (inactive)	> 100 µM (inactive)	> 100 µM (inactive)	–
